From ChEMBL document CHEMBL3400001, “Tricyclic 1,5-naphthyridinone oxabicyclooctane-linked novel bacterial topoisomerase inhibitors as broad-spectrum antibacterial agents-SAR of left-hand-side moiety (Part-2)” (Bioorg Med Chem Lett, 2015)
≈ marks a conversion by molar mass, not a printed value. Calls of active or inactive are those of the source. No cut-off for these calls is given here.

What was measured:
Streptococcus pneumoniae = test: Antimicrobial activity against Streptococcus pneumoniae IID554 by micro broth dilution or agar based method; assay type: functional
Pseudomonas aeruginosa = test: Antimicrobial activity against Pseudomonas aeruginosa PAO1 by micro broth dilution or agar based method; assay type: functional; settings: Pseudomonas aeruginosa, PAO1; read-out: MIC
Enterococcus faecalis = test: Antimicrobial activity against Enterococcus faecalis ATCC 29212 MB by micro broth dilution or agar based method; assay type: functional
Acinetobacter baumannii = test: Antimicrobial activity against Acinetobacter baumannii IID876 by micro broth dilution or agar based method; assay type: functional
Escherichia coli = test: Antimicrobial activity against Escherichia coli ATCC 25922 by micro broth dilution or agar based method; assay type: functional; settings: Escherichia coli, ATCC 25922; read-out: MIC
Staphylococcus aureus [1] = test: Antimicrobial activity against Staphylococcus aureus Smith by micro broth dilution or agar based method; assay type: functional; settings: Staphylococcus aureus, Smith; read-out: MIC
Enterococcus faecium = test: Antimicrobial activity against vancomycin-resistant Enterococcus faecium A2373 expressing VanA by micro broth dilution or agar based method; assay type: functional
Staphylococcus aureus [2] = test: Antimicrobial activity against Staphylococcus aureus infected in mouse model of bacteremia at 50 mg/kg, iv; assay type: functional, organism-based; parameters: dose 50 mg/kg
Staphylococcus aureus [3] = test: Antimicrobial activity against Staphylococcus aureus infected in mouse model of bacteremia at 50 mg/kg, po; assay type: functional, organism-based; parameters: dose 50 mg/kg
Moraxella catarrhalis = test: Antimicrobial activity against Moraxella catarrhalis ATCC 25238 by micro broth dilution or agar based method; assay type: functional
Haemophilus influenzae = test: Antimicrobial activity against Haemophilus influenzae ATCC 49247 by micro broth dilution or agar based method; assay type: functional
Staphylococcus aureus [4] = test: Ratio of MIC for quinolone-resistant Staphylococcus aureus MS5935 to MIC for quinolone-[…]; assay type: functional
[5] = biological target: T1, Voltage-gated inwardly rectifying potassium channel KCNH2 (Homo sapiens, UniProt Q12809); test: Inhibition of human ERG by MK499 binding assay
Staphylococcus aureus [6] = test: Antimicrobial activity against quinolone-resistant Staphylococcus aureus MS5935; assay type: functional
Staphylococcus aureus [7] = test: Antimicrobial activity against quinolone-sensitive Staphylococcus aureus MS5935
[8] = biological target: T1, Voltage-gated inwardly rectifying potassium channel KCNH2; test: Inhibition of human ERG expressed in CHO cells by Patch express assay; assay type: cell-based
[9] = Streptococcus pneumoniae, IID554, read-out: MIC
[10] = Enterococcus faecalis, ATCC 29212 MB, read-out: MIC
[11] = Acinetobacter baumannii, IID876, read-out: MIC
[12] = Enterococcus faecium, A2373, read-out: MIC

T1 sequence (Q12809 whole entry): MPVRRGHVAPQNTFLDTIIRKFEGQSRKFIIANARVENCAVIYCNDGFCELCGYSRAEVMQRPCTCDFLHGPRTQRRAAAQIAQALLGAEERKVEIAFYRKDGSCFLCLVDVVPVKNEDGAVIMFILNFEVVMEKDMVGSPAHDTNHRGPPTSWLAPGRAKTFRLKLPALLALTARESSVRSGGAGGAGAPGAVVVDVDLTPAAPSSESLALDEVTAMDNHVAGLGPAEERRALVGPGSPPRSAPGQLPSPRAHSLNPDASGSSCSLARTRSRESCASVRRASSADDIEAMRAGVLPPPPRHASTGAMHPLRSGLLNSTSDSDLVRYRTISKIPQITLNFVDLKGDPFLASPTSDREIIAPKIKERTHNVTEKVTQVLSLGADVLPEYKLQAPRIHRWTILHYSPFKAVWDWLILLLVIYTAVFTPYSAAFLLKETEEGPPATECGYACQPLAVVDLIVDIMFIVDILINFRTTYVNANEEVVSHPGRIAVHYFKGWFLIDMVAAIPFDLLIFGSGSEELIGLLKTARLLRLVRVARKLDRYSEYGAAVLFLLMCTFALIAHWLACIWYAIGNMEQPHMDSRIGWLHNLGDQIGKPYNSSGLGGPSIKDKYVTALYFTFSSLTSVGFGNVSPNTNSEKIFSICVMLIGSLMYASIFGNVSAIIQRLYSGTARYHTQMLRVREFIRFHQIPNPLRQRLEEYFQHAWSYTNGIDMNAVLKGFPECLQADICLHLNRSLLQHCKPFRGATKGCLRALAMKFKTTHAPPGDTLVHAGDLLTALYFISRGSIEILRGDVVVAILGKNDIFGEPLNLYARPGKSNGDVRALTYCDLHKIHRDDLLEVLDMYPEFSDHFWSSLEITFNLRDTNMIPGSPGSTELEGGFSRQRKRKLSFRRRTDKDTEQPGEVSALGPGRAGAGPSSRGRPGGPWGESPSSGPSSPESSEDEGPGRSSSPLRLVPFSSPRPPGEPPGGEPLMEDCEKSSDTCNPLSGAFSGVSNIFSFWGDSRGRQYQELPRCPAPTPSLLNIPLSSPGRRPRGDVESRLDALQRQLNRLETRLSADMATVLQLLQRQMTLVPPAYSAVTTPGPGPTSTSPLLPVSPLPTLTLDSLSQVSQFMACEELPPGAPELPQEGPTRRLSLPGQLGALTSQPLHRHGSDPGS

Structure (SMILES) | MIC (Streptococcus pneumoniae; [9]) [mg/L] | MIC (Pseudomonas aeruginosa) [mg/L] | MIC (Enterococcus faecalis; [10]) [mg/L] | MIC (Acinetobacter baumannii; [11]) [mg/L] | MIC (Escherichia coli) [mg/L] | MIC (Staphylococcus aureus [1]) [mg/L] | MIC (Enterococcus faecium; [12]) [mg/L] | Activity (Staphylococcus aureus [2]) | Activity (Staphylococcus aureus [3]) | MIC (Moraxella catarrhalis) [mg/L] | MIC (Haemophilus influenzae) [mg/L] | Ratio (Staphylococcus aureus [4]) | IC50 [5] [µM] | MIC (Staphylococcus aureus [6]) [mg/L] | MIC (Staphylococcus aureus [7]) [mg/L] | IC50 [8] [µM] | MIC (Streptococcus pneumoniae) [mg/L] | MIC (Enterococcus faecalis) [mg/L] | MIC (Acinetobacter baumannii) [mg/L] | MIC (Enterococcus faecium) [mg/L]
O=C1COc2ccc(CNC34CCC(CC5(F)Cn6c(=O)ccc7ncc(F)c5c76)(CC3)OC4)nc2N1 (racemic) | 0.5 (≈ 0.981 µM) | 32 (≈ 62.8 µM) | 2 (≈ 3.93 µM) | 1 (≈ 1.96 µM) | 4 (≈ 7.85 µM) | 0.25 (≈ 0.491 µM) | 4 (≈ 7.85 µM) | – | – | – | – | – | – | – | – | – | – | – | – | –
O=C1COc2ccc(CNC34CCC(C[C@@]5(O)Cn6c(=O)ccc7ncc(F)c5c76)(CC3)OC4)nc2N1 | 4 (≈ 7.88 µM) | 32 (≈ 63.1 µM) | 8 (≈ 15.8 µM) | 32 (≈ 63.1 µM) | 16 (≈ 31.5 µM) | 2 (≈ 3.94 µM) | 32 (≈ 63.1 µM) | inactive | inactive | – | – | – | – | – | – | – | – | – | – | –
O=C1COc2ccc(CNC34CCC(CC5(O)Cn6c(=O)cc(Cl)c7ncc(F)c5c76)(CC3)OC4)nc2N1 (racemic) | 2 (≈ 3.69 µM) | 32 (≈ 59 µM) | 8 (≈ 14.8 µM) | 8 (≈ 14.8 µM) | 8 (≈ 14.8 µM) | 2 (≈ 3.69 µM) | 32 (≈ 59 µM) | – | – | 1 (≈ 1.85 µM) | 8 (≈ 14.8 µM) | <4 | > 60 | – | – | – | – | – | – | –
O=C1COc2ccc(CNC34CCC(C[C@]5(O)CN6C(=O)CCc7ncc(F)c5c76)(CC3)OC4)nc2N1 | 8 (≈ 15.7 µM) | 32 (≈ 62.8 µM) | 16 (≈ 31.4 µM) | 32 (≈ 62.8 µM) | 32 (≈ 62.8 µM) | 8 (≈ 15.7 µM) | 32 (≈ 62.8 µM) | – | – | – | – | <4 | > 60 | – | – | – | – | – | – | –
CO[C@]1(CC23CCC(NCc4ccc5c(n4)NC(=O)CO5)(CC2)CO3)Cn2c(=O)ccc3ncc(F)c1c32 | 32 (≈ 61.4 µM) | 32 (≈ 61.4 µM) | 32 (≈ 61.4 µM) | 32 (≈ 61.4 µM) | 32 (≈ 61.4 µM) | 8 (≈ 15.3 µM) | 32 (≈ 61.4 µM) | – | – | – | – | <4 | 24.5 | – | – | – | – | – | – | –
O=C1COc2ccc(CNC34CCC(CC5(O)Cn6c(=O)c(Cl)cc7ncc(F)c5c76)(CC3)OC4)nc2N1 (racemic) | 2 (≈ 3.69 µM) | 32 (≈ 59 µM) | 8 (≈ 14.8 µM) | 16 (≈ 29.5 µM) | 16 (≈ 29.5 µM) | 2 (≈ 3.69 µM) | 32 (≈ 59 µM) | – | – | 2 (≈ 3.69 µM) | 8 (≈ 14.8 µM) | <4 | > 60 | – | – | – | – | – | – | –
Cc1cc(=O)n2c3c(c(F)cnc13)[C@](O)(CC13CCC(NCc4ccc5c(n4)NC(=O)CO5)(CC1)CO3)C2 | 1 (≈ 1.92 µM) | 32 (≈ 61.4 µM) | 4 (≈ 7.67 µM) | 0.5 (≈ 0.959 µM) | 8 (≈ 15.3 µM) | 0.5 (≈ 0.959 µM) | 8 (≈ 15.3 µM) | – | – | 0.5 (≈ 0.959 µM) | 4 (≈ 7.67 µM) | <4 | > 60 | – | – | – | – | – | – | –
C[C@H]1COc2c(N3CCN(C)CC3)c(F)cc3c(=O)c(C(=O)O)cn1c23.C[C@H]1COc2c(N3CCN(C)CC3)c(F)cc3c(=O)c(C(=O)O)cn1c23.O [LEVOFLOXACIN] | – | – | – | – | – | – | – | – | – | – | – | <4 | – | > 16 | 0.25 | – | – | – | – | –
O=C1COc2ccc(CNC34CCC(C[C@]5(O)Cn6c(=O)c(F)cc7ncc(F)c5c76)(CC3)OC4)nc2N1 | 0.5 (≈ 0.951 µM) | 16 (≈ 30.4 µM) | 2 (≈ 3.81 µM) | 4 (≈ 7.61 µM) | 4 (≈ 7.61 µM) | 0.25 (≈ 0.476 µM) | 4 (≈ 7.61 µM) | – | – | 0.25 (≈ 0.476 µM) | 1 (≈ 1.9 µM) | <4 | > 60 | – | – | – | – | – | – | –
COc1cnc2ccc(=O)n3c2c1[C@](O)(CC12CCC(NCc4ccc5c(n4)NC(=O)CO5)(CC1)CO2)C3 | 8 (≈ 15.4 µM) | 32 (≈ 61.6 µM) | 32 (≈ 61.6 µM) | 32 (≈ 61.6 µM) | 32 (≈ 61.6 µM) | 8 (≈ 15.4 µM) | 32 (≈ 61.6 µM) | – | – | – | – | – | – | – | – | – | – | – | – | –
O=C1COc2ccc(CNC34CCC(CC5Cn6c(=O)ccc7ncc(F)c5c76)(CC3)OC4)nc2N1 (stereo in doubt; 9) | – | 16 (≈ 32.6 µM) | – | – | 1 (≈ 2.03 µM) | – | – | – | – | – | – | <4 | 15.2 | – | – | 15.8 | 0.25 (≈ 0.509 µM) | 0.5 (≈ 1.02 µM) | 0.5 (≈ 1.02 µM) | 1 (≈ 2.03 µM)
COc1ccc2ncc(F)c(C[C@H](O)C34CCC(NCc5ccc6c(n5)NC(=O)CO6)(CC3)CO4)c2n1 | 0.05 (≈ 0.0981 µM) | 8 (≈ 15.7 µM) | 0.5 (≈ 0.981 µM) | 0.5 (≈ 0.981 µM) | 2 (≈ 3.93 µM) | 0.02 (≈ 0.0393 µM) | 0.5 (≈ 0.981 µM) | – | – | 0.015 (≈ 0.0294 µM) | 0.5 (≈ 0.981 µM) | – | – | – | – | – | – | – | – | –
